{
  "source": "patent US20240174692A1",
  "about": "“PYRIMIDINE AROMATIC RING COMPOUNDS” (Medshine Discovery Inc., priority 2021, published 2024)",
  "key": {"[1]": {"assay": "Pharmacokinetic evaluation of compounds in dogs", "type": "in vivo", "conditions": "dog, plasma, Beagle dogs", "description": "Purpose of assay: To assay the pharmacokinetic data of the compounds in Beagle dogs in vivo.\nCompound 014 was mixed with vehicle 20% DMSO/60% PEG400/20% (10% HP-β-CD in water), and the mixture was vortexed and sonicated to give a clear solution of 4 mg/mL. The candidate compound solutions were administered intravenously. Whole blood was collected for a certain period of time to prepare plasma. The drug concentration was analyzed by LC-MS/MS method, and pharmacokinetic parameters were calculated.\nCompound 014 was mixed (15 mg/mL) with vehicle 20% DMSO/60% PEG400/20% (10% HP-β-CD in water), and the mixture was vortexed and sonicated to give solutions of 6 mg/mL to 15 mg/mL. The candidate compound solutions were administered orally. Whole blood was collected for a certain period of time to prepare plasma. The drug concentration was analyzed by LC-MS/MS method, and pharmacokinetic parameters were calculated."}, "[2]": {"tested_on": "plasma protein", "assay": "Plasma protein binding (PPB), equilibrium dialysis, H plasma", "type": "in vitro ADME, human", "conditions": "2 μM, 4 hr dialysis", "description": "(§1) Assay procedure: 995 μL of blank plasma of various genera were weighed, and 5 μL of assay compound working solution (400 μM) or warfarin working solution (400 μM) was added so that the final concentrations of the assay compound and warfarin in plasma sample were each 2 μM. The samples were mixed thoroughly. The final concentration of DMSO (the organic phase) was 0.5%. 50 μL of the plasma samples of the assay compound and warfarin were pipetted to a sample receiving plate (in triplicate), and the corresponding volume of corresponding blank plasma or buffer was added immediately, so that the final volume in each sample well was 100 μL, wherein the volume ratio of plasma:dialysis buffer was 1:1. 500 μL of stop solution was then added to these samples. These samples were used as T0 samples for determination of recovery and stability. […] All samples were subjected to protein precipitation, and then analyzed by LC/MS/MS. Bound rate and recovery rate of protein were calculated using the following formulae: % Unbound=100*F/T % Bound=100−% Unbound, % Recovery=100*(F+T)/T0 (wherein F is the peak area ratio of the compound in the dialysate after 4 h of dialysis; T is the peak area ratio of the compound in the plasma after 4 h of dialysis; T0 is the peak area ratio of the compound in the plasma sample at time zero)."}, "[3]": {"molecular_target": "KRAS^G12D binding to c-Raf (Homo sapiens (Human), UniProt P01116, G12D)", "sequence (P01116-2 other isoform, or with tags, fused parts or gaps G12D)": "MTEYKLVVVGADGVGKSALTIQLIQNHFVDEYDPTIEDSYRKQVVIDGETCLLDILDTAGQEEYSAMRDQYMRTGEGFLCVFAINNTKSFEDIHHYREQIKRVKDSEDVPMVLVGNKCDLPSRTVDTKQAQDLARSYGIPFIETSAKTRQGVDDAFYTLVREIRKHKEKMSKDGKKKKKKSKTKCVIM", "assay": "SOS1-mediated binding of KRAS^G12D to effector protein c-Raf (TR-FRET)", "type": "biochemical"}, "[4]": {"tested_on": "plasma protein", "assay": "Plasma protein binding (PPB), equilibrium dialysis, M plasma", "type": "in vitro ADME, mouse", "conditions": "2 μM, 4 hr dialysis", "description": "as §1"}, "[5]": {"assay": "Pharmacokinetic evaluation of compounds in rats", "type": "in vivo", "conditions": "rat, plasma, SD rats", "description": "Purpose of assay: To assay the pharmacokinetic data of the compounds in SD rats in vivo.\nCompounds were mixed with vehicle 5% DMSO/95% (10% HP-β-CD in water), and the mixture was vortexed and sonicated to give a clear solution of 0.3 mg/mL. The candidate compound solutions were administered intravenously. Whole blood was collected for a certain period of time to prepare plasma. The drug concentration was analyzed by LC-MS/MS method, and pharmacokinetic parameters were calculated.\nCompounds were mixed with vehicle 5% DMSO/95% (10% HP-β-CD in water), and the mixture was vortexed and sonicated to give a solution of 7 mg/mL. The candidate compound solutions were administered orally. Whole blood was collected for a certain period of time to prepare plasma. The drug concentration was analyzed by LC-MS/MS method, and pharmacokinetic parameters were calculated."}, "[6]": {"tested_on": "plasma protein", "assay": "Plasma protein binding (PPB), equilibrium dialysis, R plasma", "type": "in vitro ADME, rat", "conditions": "2 μM, 4 hr dialysis", "description": "as §1"}, "[7]": {"tested_on": "human colon cancer GP2D xenograft tumor", "assay": "In vivo pharmacodynamic study, GP2D xenograft tumor model in Balb/c nude mouse", "conditions": "PO", "description": "An xenograft tumor model in GP2D Balb/c nude mouse:\nAssay method: A Balb/c nude mouse model of subcutaneously xenograft tumor of human colon cancer GP2D cells was established. 0.2 mL (2×10^6) of GP2D cells (Matrigel was added, and volume ratio was 1:1) were inoculated subcutaneously on the right back of each mouse. When the average tumor volume reached 149 mm^3, the administration was started by group, with 6 mice in each group. On the day of the assay, the animals were administered the corresponding drugs according to the corresponding groups. The first group G1 was set as a negative control group, which was given 5% DMSO+95%(10% HP-β-CD) alone by gavage administration. The second group G2 to the fifth group G5 were given compound 014, and the dosage and protocol of administration were shown in Table 19.\nDuring the assay, the body weight of animals and the tumor size were measured twice a week. Meanwhile, clinical symptoms of animals were observed and recorded every day. Each administration was referenced to the most recent body weight of animals.\nThe length (a) and width (b) of a tumor were measured with a digital vernier caliper. The calculation formula of tumor volume (TV) was: TV=a×b^2/2."}},
  "data": [
    {"compound": "C#Cc1c(F)ccc2cc(N)cc(-c3ccc4c(N5CC6CCC(C5)N6)nc(OC[C@@]56CCCN5C[C@H](F)C6)nc4c3F)c12", "note": "[Compound 014]", "values": [
      {"measurement": "AUC(0-inf)", "setting": "[1]; IV, 1.56 mg/kg", "result": 0.15, "unit": "µM·h"},
      {"measurement": "C0", "setting": "[1]; IV, 1.56 mg/kg", "result": 971, "unit": "nM"},
      {"measurement": "Vd", "setting": "[1]; IV, 1.56 mg/kg", "result": 5.89, "unit": "L/kg"},
      {"measurement": "clearance", "setting": "[1]; IV, 1.56 mg/kg", "result": 271, "unit": "mL/min/kg"},
      {"measurement": "half-life", "setting": "[1]; IV, 1.56 mg/kg", "result": 0.56, "unit": "h"},
      {"measurement": "AUC(0-inf)", "setting": "[1]; PO, 32.1 mg/kg", "result": 0.969, "unit": "µM·h"},
      {"measurement": "Cmax", "setting": "[1]; PO, 32.1 mg/kg", "result": 439, "unit": "nM"},
      {"measurement": "bioavailability", "setting": "[1]; PO, 32.1 mg/kg", "result": 16.9, "unit": "%"},
      {"measurement": "half-life", "setting": "[1]; PO, 32.1 mg/kg", "result": 10.8, "unit": "h"},
      {"measurement": "Unbound PPB H", "setting": "[2]", "result": 18.5, "unit": "%"},
      {"measurement": "IC50", "setting": "[3]", "result": 12, "unit": "nM"},
      {"measurement": "Unbound PPB M", "setting": "[4]", "result": 4.5, "unit": "%"},
      {"measurement": "AUC(0-inf)", "setting": "[5]; IV, 1.56 mg/kg", "result": 0.15, "unit": "µM·h"},
      {"measurement": "C0", "setting": "[5]; IV, 1.56 mg/kg", "result": 971, "unit": "nM"},
      {"measurement": "Vd", "setting": "[5]; IV, 1.56 mg/kg", "result": 5.89, "unit": "L/kg"},
      {"measurement": "clearance", "setting": "[5]; IV, 1.56 mg/kg", "result": 271, "unit": "mL/min/kg"},
      {"measurement": "half-life", "setting": "[5]; IV, 1.56 mg/kg", "result": 0.56, "unit": "h"},
      {"measurement": "AUC(0-inf)", "setting": "[5]; PO, 31.7 mg/kg", "result": 0.427, "unit": "µM·h"},
      {"measurement": "Cmax", "setting": "[5]; PO, 31.7 mg/kg", "result": 182, "unit": "nM"},
      {"measurement": "bioavailability", "setting": "[5]; PO, 31.7 mg/kg", "result": 12.5, "unit": "%"},
      {"measurement": "half-life", "setting": "[5]; PO, 31.7 mg/kg", "result": 6.8, "unit": "h"},
      {"measurement": "Unbound PPB R", "setting": "[6]", "result": 2.0, "unit": "%"},
      {"measurement": "Tumor volume inhibition rate TGI", "setting": "[7]; G2, 25 mg/kg, BID*22, at day 14", "result": 84.2, "unit": "%"},
      {"measurement": "Tumor volume inhibition rate TGI", "setting": "[7]; G3, 50 mg/kg, BID*22, at day 14", "result": 89.4, "unit": "%"},
      {"measurement": "Tumor volume inhibition rate TGI", "setting": "[7]; G4, 150 mg/kg, BID*22, at day 14", "result": 97.3, "unit": "%"},
      {"measurement": "Tumor volume inhibition rate TGI", "setting": "[7]; G5, 150 mg/kg, QD*22", "result": 91.4, "unit": "%"}
    ]}
  ]
}
